For 26 compounds, melting point and response vs control in vivo results are on record in patent publication US20150141411A1, “SUBSTITUTED 3,4-DIHYDRO-2H-PYRIDO[1,2-A]PYRAZINE-1,6-DIONE DERIVATIVES USEFUL FOR THE TREATMENT OF (INTER ALIA) ALZHEIMER'S DISEASE” (Janssen Pharmaceuticals, Inc., priority 2012, published 2015).

The structures appear in SMILES notation.

In one data set the test system is Aβ42. The experiment in a line: In vivo efficacy: brain soluble Aβ42 in non-transgenic rodents (ELISA). The note with it: Mus musculus, dose 30 mg/kg oral dosing, brain soluble fraction, animals sacrificed after 4 h, untreated animals (Ctrl) set at 100, read-out: Aβ42 (% vs Ctrl)_Mean. An excerpt:
(§1) To determine whether acute administration of an Aβ42 lowering agent would reduce Aβ42 levels in vivo, non-transgenic rodents, e.g. mice or rats were used. Animals treated with the Aβ42 lowering agent were examined and compared to those untreated or treated with vehicle and brain levels of soluble Aβ42 and total Aβ were quantitated by standard techniques, for example, using ELISA. Treatment periods varied from hours (h) to days and were adjusted based on the results of the Aβ42 lowering once a time course of onset of effect could be established.
(§2) A typical protocol for measuring Aβ42 lowering in vivo is shown but it is only one of many variations that could be used to optimize the levels of detectable Aβ. For example, Aβ42 lowering compounds were formulated in 20% of Captisol® (a sulfobutyl ether of β-cyclodextrin) in water or 20% hydroxypropyl β cyclodextrin. The Aβ42 lowering agents were administered as a single oral dose or by any acceptable route of administration to overnight fasted animals. After 4 h, the animals were sacrificed and Aβ42 levels were analysed.
(§3) Blood was collected by decapitation and exsanguinations in EDTA-treated collection tubes. Blood was centrifuged at 1900 g for 10 minutes (min) at 4° C. and the plasma recovered and flash frozen for later analysis. The brain was removed from the cranium and hindbrain. The cerebellum was removed and the left and right hemisphere were separated. The left hemisphere was stored at −18° C. for quantitative analysis of test compound levels. The right hemisphere was rinsed with phosphate-buffered saline (PBS) buffer and immediately frozen on dry ice and stored at −80° C. until homogenization for biochemical assays.
(§4) Mouse brains from non-transgenic animals were resuspended in 8 volumes of 0.4% DEA (diethylamine)/50 mM NaCl containing protease inhibitors (Roche-11873580001 or 04693159001) per gram of tissue, e.g. for 0.158 g brain, add 1.264 ml of 0.4% DEA. All samples were homogenized in the FastPrep-24 system (MP Biomedicals) using lysing matrix D (MPBio #6913-100) at 6 m/s for 20 seconds. Homogenates were centrifuged at 221.300×g for 50 min. The resulting high speed supernatants were then transferred to fresh eppendorf tubes. Nine parts of supernatant were neutralized with 1 part 0.5 M Tris-HCl pH 6.8 and used to quantify Aβtotal and Aβ42.
(§5) To quantify the amount of Aβtotal and Aβ42 in the soluble fraction of the brain homogenates, Enzyme-Linked-Immunosorbent-Assays were used. Briefly, the standards (a dilution of synthetic Aβ1-40 and Aβ1-42, Bachem) were prepared in 1.5 ml Eppendorf tube in Ultraculture, with final concentrations ranging from 10000 to 0.3 pg/ml. The samples and standards were co-incubated with HRPO-labelled N-terminal antibody for Aβ42 detection and with the biotinylated mid-domain antibody 4G8 for Aβtotal detection. 50 μl of conjugate/sample or conjugate/standards mixtures were then added to the antibody-coated plate (the capture antibodies selectively recognize the C-terminal end of Aβ42, antibody JRF/cAβ42/26, for Aβ42 detection and the N-terminus of Aβ, antibody JRF/rAβ/2, for Aβtotal detection). The plate was allowed to incubate overnight at 4° C. in order to allow formation of the antibody-amyloid complex. Following this incubation and subsequent wash steps the ELISA for Aβ42 quantification was finished by addition of Quanta Blu fluorogenic peroxidase substrate according to the manufacturer's instructions (Pierce Corp., Rockford, Ill.). A reading was performed after 10 to 15 min (excitation 320 nm/emission 420 nm).
In this model a Aβ42 lowering compared to untreated animals would be advantageous, in particular a Aβ42 lowering with at least 10%, more in particular a Aβ42 lowering with at least 20%.
The results are shown in Table 4 (dose 30 mg/kg oral dosing) (value for untreated animals as control (Ctrl) was set at 100): […]
(An ELISA detects its analyte on a solid surface through an enzyme-linked reagent.)

Another data set deals with Aβtotal. As to the kind of experiment: In vivo efficacy: brain soluble Aβtotal in non-transgenic rodents (ELISA). The conditions noted are these: Mus musculus, dose 30 mg/kg oral dosing, brain soluble fraction, animals sacrificed after 4 h, untreated animals (Ctrl) set at 100, read-out: Aβtotal (% vs Ctrl)_Mean.
Text: as §1, §2, §3, §4, §5
For Aβtotal detection, a Streptavidine-Peroxidase-Conjugate was added, followed 60 min later by an additional wash step and addition of Quanta Blu fluorogenic peroxidase substrate according to the manufacturer's instructions (Pierce Corp., Rockford, Ill.). A reading was performed after 10 to 15 min (excitation 320 nm/emission 420 nm). […]

Consider `Cc1cn(-c2ccc3n(c2=O)CC(C)N(C(C)c2cn(C)c4cc(F)c(Cl)cc24)C3=O)cn1` (single isomer, unassigned) [compound 189], for which the melting point (in general, the temperature, or range, at which the solid turns liquid) is 263 °C.

`Cc1cn(-c2ccc3n(c2=O)CC(C)N(C(C)c2cc(C(F)(F)F)cc(C(F)(F)F)c2)C3=O)cn1.Cl` (single isomer, unassigned) [compound 112] returned a melting point of 259 °C.

In turn, `Cc1cn(-c2ccc3n(c2=O)C[C@@H](C)N(Cc2ccc(F)c(F)c2)C3=O)cn1` [compound 133] came in with a melting point of 198.1 °C.

Turning to `Cc1cn(-c2ccc3n(c2=O)C[C@@H](C)N(Cc2ccc(Cl)c(C(F)(F)F)c2)C3=O)cn1` [compound 62], the response vs control in vivo at 30 mg/kg in the data set on Aβ42 is 68%; in the data set on Aβtotal, 98%.

`Cc1cn(-c2ccc3n(c2=O)C[C@@H](C)N(CCc2cc(C(F)(F)F)cc(C(F)(F)F)c2)C3=O)cn1` [compound 50]: the response vs control in vivo at 30 mg/kg turned out to be 88% in the data set with Aβ42 and 91% in the data set with Aβtotal.

Take `C[C@@H]1Cn2c(ccc(-n3cnc(Cl)c3)c2=O)C(=O)N1Cc1cc(C(F)(F)F)cc(C(F)(F)F)c1` [compound 118]: the melting point turned out to be 157.9 °C.

`Cc1cn(-c2ccc3n(c2=O)CCN(C(C)c2cccc(Cl)c2Cl)C3=O)cn1` (single isomer, unassigned) [10a] displayed a melting point of 203.8 °C. Moreover, in the data set with Aβ42, the response vs control in vivo at 30 mg/kg came out at 87%. For the same compound, the response vs control in vivo at 30 mg/kg with Aβtotal came out at 118%.

Compound `Cc1cn(-c2cc(F)c3n(c2=O)C[C@@H](C)N(Cc2cc(C(F)(F)F)cc(C(F)(F)F)c2)C3=O)cn1` [compound 158] gave a melting point of 137.1 °C.

Take `Cc1cn(-c2ccc3n(c2=O)CCN(C(C)c2cn(C)c4cc(F)c(Cl)cc24)C3=O)cn1` (single isomer, unassigned) [compound 185]: the melting point turned out to be 258 °C.

`Cc1cn(-c2ccc3n(c2=O)CCN(Cc2ccc(Cl)c(C(F)(F)F)c2)C3=O)cn1` [compound 65]: the melting point is 195.1 °C. Besides, the response vs control in vivo at 30 mg/kg in the data set on Aβ42 amounted to 104%. Besides, the response vs control in vivo at 30 mg/kg with Aβtotal worked out at 114%.

As to `Cc1cn(-c2ccc3n(c2=O)C[C@@H](C)N(Cc2ccc(Cl)c(Cl)c2)C3=O)cn1` [compound 2], the melting point turned out to be 185 °C. The response vs control in vivo at 30 mg/kg in the data set with Aβ42 came out at 82%. In the data set with Aβtotal, the response vs control in vivo at 30 mg/kg was determined as 100%.

The compound `Cc1cn(-c2ccc3n(c2=O)CCN(Cc2ccccc2C)C3=O)cn1` [compound 22] gave a melting point of 186.1 °C. In addition, the response vs control in vivo at 30 mg/kg in the data set on Aβ42 was 106%. For the same compound, the response vs control in vivo at 30 mg/kg with Aβtotal came to 92%.

Regarding `Cc1cc(CN2C(=O)c3ccc(-n4cnc(C)c4)c(=O)n3C[C@H]2C)cc(C(F)(F)F)c1` [compound 59], the melting point is 167.7 °C. In addition, in the data set with Aβ42, the response vs control in vivo at 30 mg/kg is 82%. Also, the response vs control in vivo at 30 mg/kg with Aβtotal was found to be 126%.

For the compound `Cc1cn(-c2ccc3n(c2=O)CCN(Cc2cccc(-c4ccccc4)c2)C3=O)cn1` [compound 5], the melting point was found to be 165.6 °C. Further, in the data set with Aβ42, the response vs control in vivo at 30 mg/kg was 78%. The response vs control in vivo at 30 mg/kg in the data set on Aβtotal came to 87%.

Compound `Cc1cn(-c2ccc3n(c2=O)CC(C)N(Cc2cc(C(F)(F)F)cc(C(F)(F)F)c2)C3=O)cn1` (centres unmarked) [compound 3] displayed a melting point of 176.6 °C. In the data set on Aβ42, the response vs control in vivo at 30 mg/kg was found to be 55%. Besides, the response vs control in vivo at 30 mg/kg in the data set on Aβtotal came out at 98%.

For `Cc1cn(-c2ccc3n(c2=O)C[C@@H](C)N(Cc2ccc(C(F)(F)F)c(C(F)(F)F)c2)C3=O)cn1` [compound 46], the melting point worked out at 145.6 °C. The response vs control in vivo at 30 mg/kg with Aβ42 worked out at 60%. In addition, the response vs control in vivo at 30 mg/kg in the data set on Aβtotal was 87%.

`CCc1cn(-c2ccc3n(c2=O)CC(C)N(Cc2cc(C(F)(F)F)cc(C(F)(F)F)c2)C3=O)cn1.Cl` (centres unmarked) [compound 7] came in with a melting point of 290 °C. Besides, the response vs control in vivo at 30 mg/kg with Aβ42 was 73%. Further, the response vs control in vivo at 30 mg/kg with Aβtotal was determined as 94%.

As to `Cc1cn(-c2ccc3n(c2=O)CC(C)N(C(C)c2cc(C(F)(F)F)cc(C(F)(F)F)c2)C3=O)cn1.Cl` (single isomer, unassigned) [compound 111], the melting point amounted to 147.3 °C.

For `Cc1cn(-c2ccc3n(c2=O)CC(C)N(Cc2cc(OCC4CC4)cc(C(F)(F)F)c2)C3=O)cn1.Cl` (centres unmarked) [compound 6], the melting point came to 175.4 °C. In the data set with Aβ42, the response vs control in vivo at 30 mg/kg was found to be 85%. The response vs control in vivo at 30 mg/kg with Aβtotal stood at 102%.

Regarding `Cc1cn(-c2ccc3n(c2=O)C[C@@H](C)N(Cc2cc(Cl)cc(C(F)(F)F)c2)C3=O)cn1` [compound 63], the melting point stood at 180.4 °C. Further, the response vs control in vivo at 30 mg/kg in the data set with Aβ42 was 82%. The response vs control in vivo at 30 mg/kg in the data set on Aβtotal was 124%.

As to `Cc1cn(-c2ccc3n(c2=O)CC(C)N(C(C)c2c[nH]c4c(F)cc(Cl)cc24)C3=O)cn1` (single isomer, unassigned) [compound 219], the melting point came out at 263 °C.

In the case of `Cc1cn(-c2ccc3n(c2=O)C[C@@H](C)N(Cc2cc(N4CCCC4)ccc2Cl)C3=O)cn1` [compound 82], the response vs control in vivo at 30 mg/kg with Aβ42 turned out to be 78%; in the data set on Aβtotal it was 125%.

As to `CCC1Cn2c(ccc(-n3cnc(C)c3)c2=O)C(=O)N1Cc1cc(C(F)(F)F)cc(C(F)(F)F)c1.Cl` (centres unmarked) [compound 1], the melting point was 203.6 °C. Also, in the data set with Aβ42, the response vs control in vivo at 30 mg/kg amounted to 61%. Moreover, the response vs control in vivo at 30 mg/kg in the data set on Aβtotal amounted to 89%.

`Cc1cn(-c2ccc3n(c2=O)C[C@@H](C)N(Cc2cc(N4CCC(C)CC4)ccc2Cl)C3=O)cn1` [compound 80]: the response vs control in vivo at 30 mg/kg in the data set on Aβ42 and in the data set on Aβtotal was 119% each time.

In the case of `Cc1cn(-c2ccc3n(c2=O)C[C@@H](C)N(Cc2cccc(C(C)(C)C)c2)C3=O)cn1` [compound 23], the response vs control in vivo at 30 mg/kg with Aβ42 and in the data set with Aβtotal was 122% throughout.

Consider `Cc1cn(-c2ccc3n(c2=O)CCN(Cc2ccc(C)c(N4CCCCC4)c2)C3=O)cn1` [compound 99], for which the response vs control in vivo at 30 mg/kg in the data set on Aβ42 is 111%; with Aβtotal, 113%.
